The assay has as its system human precision cut liver slices (PCLS). Briefly: Biomarker secretion from PCLS into culture medium (ELISA). The assay is classed as cell-based. The conditions noted are these: collagen1α1, fibronectin, hyaluronic acid, IL-6, MCP-1. As for the experimental part: PCLS were obtained from 5 human donors who underwent resection of liver cancer. Replicate slices were collected from healthy margins of the resections and cultured for 4 or 6 days depending on the experimental protocol. In the Nonstimulation Protocol slices were cultured for 6 days and treated for the entire period with DMSO vehicle or 5 μM CRV431. In the Stimulation Protocol slices were rested for 1 day and then administered the cytokines, TGFβ and PDGF-BB, for 3 days to stimulate inflammation and fibrosis. DMSO vehicle, CRV431 (1 and 5 μM), Alk5i (10 μM), obeticholic acid (5 μM), elafibranor (5 μM), resmetirom (5 μM), and Aramchol (5 μM) were administered individually as drug treatments in the Stimulation Protocol concurrent with TGFβ+PDGF-BB. Culture medium treatments were replaced daily.
(a) Biomarker secretion. Spent culture medium was collected daily from duplicate slices for each treatment. ELISAs were used to quantify secretion of monocyte chemoattractant protein (MCP-1), interleukin-6 (IL-6), tissue inhibitor of metalloproteinase-1 (TIMP1), hyaluronic acid, fibronectin, and collagen 1α1. For each donor the mean level of biomarker secretion in each treatment group was expressed as a percentage change relative to DMSO vehicle, the percentages averaged for all donors, and finally the mean daily percentage change calculated from all days of evaluation. […]

The values below come from patent publication US20210269479A1, “USE OF CY[…] FOR TREATING CANCER” (Hepion Pharmaceuticals, Inc., priority 2020, published 2021).

Entries after “also recorded” stand apart in the source; their conditions may differ.

In the case of `CC[C@@H]1NC(=O)[C@H]([C@H](O)[C@H](C)CCCCCCNC(C)=O)N(C)C(=O)[C@H](C(C)C)N(C)C(=O)[C@H](CC(C)C)N(C)C(=O)[C@H](CC(C)C)N(C)C(=O)[C@@H](C)NC(=O)[C@H](C)NC(=O)[C@H](CC(C)C)N(C)C(=O)[C@H](C(C)C)NC(=O)[C@H](CC(C)C)N(C)C(=O)[C@@H](C)N(C)C1=O` [CRV431], the “secretion of inflammation and fibrosis biomarkers” value was “reduced secretion of collagen1α1, fibronectin, hyaluronic acid, IL-6, and MCP-1; also recorded: decreased the mean daily secretion and gene expression of all markers”.
